The source of these data is PMC11267968 (BMC Cancer, 2024).

Molecules are shown by their SMILES.

For data set [1], the system named is C6 orthotopic glioma. Further details: method as in PMID 29993291. The conditions noted are these: with TMZ; C6 orthotopic rat model of glioma; cited from earlier work.
For data set [2], the system named is subcutaneous GL2612 tumour. Further details: method as in PMID 29993291. The conditions noted are these: with TMZ; mice; cited from earlier work.
The nature of data set [3]: Body weight in orthotopic glioblastoma mice. The conditions noted are these: repeated treatment; AT-0174 […] mg/kg PO; TMZ 8 mg/kg IP; compared to vehicle. Format: in vivo, C57BL/6J mice.
Description: Starting from day 6 after tumour cell inoculation, all mice were monitored in vivo until Day 55 for tumour growth (assessed by bioluminescence and measured on days 6, 14, 21, 28, 35, 42, and 49), body weight (monitored 3 times per week until day 18, and then daily from day 19–55), and survival.
The test system of data set [4] is tumour-infiltrating lymphocytes in GL261(luc2) glioblastomas. In words: Immune response profiling of tumour-infiltrating lymphocytes by FACS. The format is in vivo, C57BL/6J mice. The conditions noted are these: day 16, AT-0174 […] mg/kg PO, TMZ 8 mg/kg IP. The text has this:
On day 16 post-tumour inoculation, satellite animals from each experimental group were euthanized, and tumours were collected. Tumours were processed for organ dissociation using the GentleMACS system (Miltenyi Biotec) and myelin debris removal and homogenate purification through a Percoll gradient. Tumour homogenates were then processed for immunostaining and profiling analysis by flow cytometry for the lymphoid component according to a marker panel including CD45, CD3, CD4, CD8, IFNγ, CD25, and FoxP3. For IFNγ, homogenate samples were first stimulated with a cocktail of Phorbol 12-myristate 13-acetate, Ionomycin and Brefeldin A. Briefly, to assess viability, cells were stained with LIVE/DEAD Zombie NIR (Biolegend). For simultaneous detection of the intracellular molecule, after fixed, cells were permeabilized with Foxp3 transcription factor staining buffer set according to the manufacturer’s protocol (eBioscience). All flow antibodies were obtained from BioLegend.
On the technique in general: In flow cytometry, cells or beads pass a laser one at a time.

For data set [5], the system named is orthotopic intracranial GL261 cell tumours. Further details: method as in PMID 26636389. The conditions noted are these: cited from earlier work.
For data set [6], the system named is U87 cell xenograft. Further details: method as in PMID 26636389. The conditions noted are these: U87 cell xenograft model; cited from earlier work.

As for `Cc1ccc(NC(=O)Nc2cc(-c3ccccc3-c3nn[nH]n3)ccc2N(CC(C)C)CC(C)C)cc1` [PCC0208009], in data set [1], the Survival result is recorded as “improved survival”. Moreover, the Subcutaneous tumour growth entry in data set [2] was “significantly synergised with TMZ”.

Consider `Cn1nnc2c(C(N)=O)ncn2c1=O` [TMZ, Temozolomide], for which the “Effect on body weight” value in data set [3] is “mild (though non-significant) drop in body weight”. Besides, the “Cytotoxic CD8+ T cells in tumour” value in data set [4] (vs control) is given as “non-significant increase”. Further, the “Tregs (CD4+CD25+FoxP3+ cells) in tumour” value in data set [4] (vs vehicle control) is listed as “higher”.

Turning to `Cn1cc(C[C@H](N)C(=O)O)c2ccccc21` [1-MT, 1-methyltryptophan], the Survival duration entry in data set [5] (TMZ in combination with 1-MT, compared to TMZ alone) is “slight increase in the survival duration”. Besides, the “Efficacy when given alone” value in data set [5] (orthotopic GL261 model, given alone) is given as “ineffective”; in data set [6], “ineffective”.
